{"source": "patent US11612570B2", "about": "“Decreased adhesivity receptor-targeted nanoparticles for Fn14-positive tumors” (UNIVERSITY OF MARYLAND, BALTIMORE, priority 2014, dated 2023)", "key": {"[1]": {"tested_on": "231-Br-Luc cells", "test": "In vitro cytotoxicity (MTS assay) in brain-seeking TNBC cells", "format": "cell-based, human", "settings": "24 hours' incubation"}, "[2]": {"tested_on": "231-Luc cells", "test": "In vitro cytotoxicity (MTS assay)", "format": "cell-based, human", "description": "For cytotoxicity assays, 231-Luc cells were cultured in 96-well plates at 5×10^3 cells/well for 24 hours. Culture media was removed and replaced with media containing various treatment groups. […] The culture media was removed after 2 hours of incubation to mimic the clearance mechanism and replaced with fresh culture media. Cell viability was then measured after 24 hours with percent viability calculated as absorbance relative to control wells (cell with culture media). A total of 3 wells were used per treatment per concentration for each experiment."}}, "data": [{"smiles": "CC(=O)O[C@H]1C(=O)[C@@]2(C)[C@H]([C@H](OC(=O)c3ccccc3)[C@]3(O)C[C@H](OC(=O)[C@H](O)[C@@H](NC(=O)c4ccccc4)c4ccccc4)C(C)=C1C3(C)C)[C@]1(OC(C)=O)CO[C@@H]1C[C@@H]2O", "note": "[PTX, Paclitaxel]", "values": [{"measurement": "cell sensitivity (viability)", "setting": "[1]", "result": "sensitive to PTX treatment in vitro"}, {"measurement": "effect on cell viability / cytotoxicity", "setting": "[2]; 2 hours exposure, then fresh media for 24 hours", "result": "only a small effect on cell viability"}, {"measurement": "cytotoxicity", "setting": "[2]; 24 hours in culture media", "result": "more potent than Abraxane™"}]}]}
